Test results taken from US8609690B2, “Aryl- and heteroarylcarbonyl derivatives of substituted nortropanes, medicaments containing such compounds and their use” (Boehringer Ingelheim International GmbH, priority 2008, dated 2013).

Target: T1, 11β-HSD 1 (Homo sapiens, UniProt P28845)
T1 construct: detecting cortisol generated from cortisterone by human liver microsomes; from tissue; host or cells: human liver microsomes
Assay: In vitro inhibition of 11β-HSD 1, HTRF detection of cortisol generated by human liver microsomes
Assay type: biochemical
Settings: 1 μM test compound, 100% indicates no inhibition, zero or below zero indicates complete inhibition (relative to carbenoxolone)
Method in brief: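 Human liver microsomes with test compound were incubated 1 h at 37 °C in Tris buffer, pH 6.0, with 200 μM NADPH and 80 nM cortisone. Cortisol formed was detected by competitive HTRF immunoassay (665/615 nm ratio) and calibrated against a cortisol standard curve. Values are activities at 1 μM compound relative to carbenoxolone, where 100% indicates no inhibition.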

T1 sequence (P28845 whole entry): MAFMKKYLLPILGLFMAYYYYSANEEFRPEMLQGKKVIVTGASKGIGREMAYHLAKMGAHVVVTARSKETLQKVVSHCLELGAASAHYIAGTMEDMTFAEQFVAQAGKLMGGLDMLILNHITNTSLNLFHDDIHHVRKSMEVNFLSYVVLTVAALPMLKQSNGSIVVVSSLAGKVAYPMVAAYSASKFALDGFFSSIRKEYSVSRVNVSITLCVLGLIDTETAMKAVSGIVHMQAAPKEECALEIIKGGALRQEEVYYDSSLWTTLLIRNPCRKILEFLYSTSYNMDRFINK

| SMILES | Inhibitory activity on 11β-HSD 1, % CTL [% CTL] |
| --- | --- |
| O=C(c1cccc(-c2cnco2)c1)N1[C@@H]2CC[C@H]1C[C@@H](c1ccc(F)cc1)C2 [Example 91, endo-[3-(4-Fluoro-phenyl)-8-aza-bicyclo[3.2.1]oct-8-yl]-(3-oxazol-5-yl-phenyl)-methanone] | 69 |
| C[Si](C)(C)c1ccc([C@H]2C[C@H]3CC[C@@H](C2)N3C(=O)c2ccc3c(c2)OCCO3)cc1 [Example 143, endo-(2,3-Dihydro-benzo[1,4]dioxin-6-yl)-[3-(4-trimethyl-silyl-phenyl)-8-aza-bicyclo[3.2.1]oct-8-yl]-methanone] | 58 |
| O=C(c1cc(F)c(O)c(F)c1)N1[C@@H]2CC[C@H]1C[C@@H](c1ccc(F)cc1)C2 [Example 172, endo-(3,5-Difluoro-4-hydroxy-phenyl)-[3-(4-fluoro-phenyl)-8-aza-bicyclo[3.2.1]oct-8-yl]-methanone] | 0 |
| O=C1CCCN1c1cccc(C(=O)N2[C@@H]3CC[C@H]2C[C@@H](c2ccc(F)cc2)C3)c1 [Example 75, endo-1-{3-[3-(4-Fluoro-phenyl)-8-aza-bicyclo[3.2.1]octane-8-carbonyl]-phenyl}-pyrrolidin-2-one] | 92 |
| O=C(c1ccc(O)c(Cl)c1)N1[C@@H]2CC[C@H]1C[C@@H](c1ccc(F)cc1)C2 [Example 167, endo-(3-Chloro-4-hydroxy-phenyl)-[3-(4-fluoro-phenyl)-8-aza-bicyclo[3.2.1]oct-8-yl]-methanone] | −22 |
| CCn1ccc2ccc(C(=O)N3[C@@H]4CC[C@H]3C[C@@H](c3ccc(F)cc3)C4)cc21 [Example 51, endo-(1-Ethyl-1H-indol-6-yl)-[3-(4-fluoro-phenyl)-8-aza-bicyclo[3.2.1]oct-8-yl]-methanone] | 41 |
| CNc1cccc(C(=O)N2[C@@H]3CC[C@H]2C[C@@H](c2ccc(F)cc2)C3)c1 [Example 83, endo-[3-(4-Fluoro-phenyl)-8-aza-bicyclo[3.2.1]oct-8-yl]-(3-methylamino-phenyl)-methanone] | −30 |
| O=C(c1ccco1)N1[C@@H]2CC[C@H]1C[C@@H](c1ccc(F)cc1)C2 [Example 34, endo-[3-(4-Fluoro-phenyl)-8-aza-bicyclo[3.2.1]oct-8-yl]-furan-2-yl-methanone] | 75 |
| Cc1ccc([C@H]2C[C@H]3CC[C@@H](C2)N3C(=O)c2ccc(OC3CSC3)cc2)cc1 [Example 32, endo-[4-(Thietan-3-yloxy)-phenyl]-(3-p-tolyl-8-aza-bicyclo[3.2.1]oct-8-yl)-methanone] | 94 |
| Cc1ccccc1C(=O)N1[C@@H]2CC[C@H]1C[C@@H](c1ccc(F)cc1)C2 [Example 100, endo-[3-(4-Fluoro-phenyl)-8-aza-bicyclo[3.2.1]oct-8-yl]-o-tolyl-methanone] | 61 |
| COC(=O)c1ccc([C@H]2C[C@H]3CC[C@@H](C2)N3C(=O)c2ccc3c(c2)OCCO3)cc1 [Example 154] | 59 |
| O=C(c1cscn1)N1[C@@H]2CC[C@H]1C[C@@H](c1ccc(F)cc1)C2 [Example 43, endo-[3-(4-Fluoro-phenyl)-8-aza-bicyclo[3.2.1]oct-8-yl]-thiazol-4-yl-methanone] | 95 |
| N#Cc1cccc(C(=O)N2[C@@H]3CC[C@H]2C[C@@H](c2ccc(F)cc2)C3)c1 [Example 106, endo-3-[3-(4-Fluoro-phenyl)-8-aza-bicyclo[3.2.1]octane-8-carbonyl]-benzonitrile] | 75 |

Same assay, conditions: 1 μM test compound, 100% indicates no inhibition, zero or below zero indicates complete inhibition (relative to carbenoxolone), 1 µM

| SMILES | Inhibitory activity on 11β-HSD 1, % CTL [% CTL] |
| --- | --- |
| O=C(c1ccccn1)N1[C@@H]2CC[C@H]1C[C@@H](c1ccc(F)cc1)C2 [Example 18, endo-[3-(4-Fluoro-phenyl)-8-aza-bicyclo[3.2.1]oct-8-yl]-pyridin-2-yl-methanone] | 97 |
